Legend:
MC38 cancers = assay: MC38 tumor model in SPF mice, OXA + anti-PD-1 Abs plus oral gavage of live bacteria; assay type: in vivo, C57BL/6J mice; conditions: SPF mice (eubiosis), oral gavage of 10^9 cfu live bacteria before and after OXA
Experimental: (§1) Syngeneic C57BL/6J mice were implanted with 1×10^6 MC38 WT cells subcutaneously and treated intraperitoneally (i.p.) when tumors were 20 to 30 mm^2 in size with 10 mg/kg oxaliplatin or vehicule (PBS). The composition of the commensal gut microbiota in the treated and non-treated groups was maintained synchronized by cohousing. Tumor size was routinely monitored every 3 days by means of a caliper.
PD-1 blockade was performed by i.p. treatment with anti-PD-1 mAbs (RMP1-14; 200 μg/mouse) or respective isotype controls (2A3) (all antibodies from Bioxcell).
Erysipelothrix tonsillarum and Solobacterium moorei were provided by Prof. Ivo Gomperts Boneca, Institut Pasteur, France. Bacteroides fragilis, Alistipes onderdonkii, Erysipelatoclostridium ramosum, Dialister invisus, Paraprevotella clara isolates were isolated in our laboratory from ileal mucus from patients used in vaccination experiments. Species were grown on COS plates in aerobic or an anaerobic atmosphere created using anaerobic generators (Biomerieux) at 37° C. for 24-72 hrs. Colonization of ATB pre-treated or GF C57BL/6J mice was performed by oral gavage with 100 μl of suspension containing 1×10^9 bacteria in PBS. For bacterial gavage, suspensions of 10^9 CFU/ml were obtained using a fluorescence spectrophotometer (Eppendorf) at an optical density of 1 measured at a wavelength of 600 nm. […]

naïve CD4+ T cells = assay: Differentiation of naive CD4+ T cells into Th1 cells by DCs charged with HIEC-6 (IFNg ELISA); assay type: cell-based, human; conditions: DCs charged with allogeneic HIEC-6 pre-exposed to bacteria and/or OXA; 6 healthy volunteers
Experimental: CD14+ cells were isolated from PBMC obtained from healthy donors (Miltenyi Kit). Monocytes were differentiated into DCs by adding GM-CSF and IL-4 in the culture medium for 6 days. On day 6, immature DCs were harvested and charged with apoptotic intestinal epithelial cells.
For apoptotic IEC cells preparation, HIEC-6 cells (ATCC) were treated with bacteria 1 h, OXA 3 h, and ATB 1 h, and then left ON. The next morning, Apoptotic cells were harvested, washed 3× in PBS and added to the DC culture.
Naïve CD4 T cells were isolated from the matched donor for each experiment (Miltenyi kit) and added to the DC-IEC culture at a 10:1 ratio. The final co-culture was incubated for 6 days. On day 6, anti-CD3 and anti-CD28 mAb were added to the culture. After 24 h incubation supernatants were assayed for IFNg by ELISA (Biolegend).

MC38 tumors = assay: FMT avatar mice (GF mice colonized with PCAC patient colonic content), MC38, OXA; assay type: in vivo, C57BL/6J mice; conditions: 12 PCAC patient feces tested
Experimental: as §1
Frozen fecal samples were thawed and thoroughly vortexed. Large particulate material was allowed to settle by gravity. 200 μl of supernatant was administered in a single dose by oral gavage. Additionally, an extra 100 μl was topically applied onto the fur of each animal. The resulting gnotobiotic mice were maintained in positive pressurized isolators with irradiated food and autoclaved water. […]
Data analyses and representations were performed either with the statistical environment R, Microsoft Excel (Microsoft Co., Redmont, WA, USA) or Prism 5 (GraphPad, San Diego, CA, USA). Tumor growth was analysed with dedicated software (https://kroemerlab.shinyapps.io/TumGrowth). Briefly, data was subjected to a linear mixed effect modeling applied to log pre-processed tumor surfaces. p-values were calculated by testing jointly whether both tumor growth slopes and intercepts (on a log scale) were different between treatment groups of interests. […]

ileal mucosae = assay: qRT-PCR of immune gene transcripts in ileal mucosae of avatar mice; assay type: in vivo; conditions: avatar responders compared to avatar non-responders
Experimental: Total RNA from gut biopsies was extracted with RNeasy Mini Kit (Qiagen) and then reverse transcribed into cDNA with the SuperScript III Reverse Transcriptase and the RNaseOUT™ Recombinant Ribonuclease Inhibitor (Life Technologies, Saint Aubin, France), in the presence of random primers (Promega, Charbonnieres, France) and the Deoxynucleoside Triphosphate Set, PCR grade (Roche Diagnostics, Meylan, France). cDNA was analyzed by real-time quantitative PCR (RT-qPCR) with the TaqMan method with TaqMan® Gene Expression Assays using the Universal Master Mix II (Invitrogen) according to the manufacturer's instructions using the 7500 Fast Real Time PCR system (Applied Biosystems). Expression was normalized to the expression of the housekeeping gene of Beta 2 Microglobulin by means of the 2^−ΔCt method.

ileal and colonic IEC = assay: Immunohistochemistry of cleaved caspase-3 in colon and ileal mucosae after OXA i.p.; assay type: in vivo, mice; conditions: 6 h after OXA i.p.; ileal versus colonic IEC
Experimental: Donor mice were treated with oxaliplatin (10 mg/kg) i.p. for 6 h to induce gut cell death. Control animals were treated with vehicle (PBS) alone. The composition of the commensal gut microbiota in the treated and non-treated groups was maintained synchronized by cohousing. At the end of the treatment, mice were euthanized and the ileum was collected to isolate IEC. One million IECs were then injected s.c. into the left flank of the recipient mice. The procedure was repeated once, 7 days later. Tumor challenge was performed on the right flank 7 days after the last immunization, with doses which obtain 100% of tumor incidence in naïve mice, MC38 (1×10^6 cells), MCA205 (0.8×10^6 cells), CT26 (1×10^6 cells) and 4T1 (0.3×10^6 cells).
FFPE gut sections were deparaffinised and rehydrated through a series of graded alcohols and distilled water. Antigen retrieval was performed by pre-treating sections with 0.01 M sodium citrate buffer (pH 6.0, Diapath) for 30 min in a 98° C. water bath. Endogenous peroxidase activity was inhibited by treating sections with 3% […] (#S202386, DAKO) for 10 min. Sections were blocked with IHC/ISH Super Blocking (#PV6122, LeicaBiosystem) for 10 min. […] Peroxidases were detected with Di Amino Benzidine-peroxidase substrate kit (DAKO), and counterstained with Mayer's haematoxylin. […]

[1] = tested on: small intestine enteroids; assay: OXA treatment of stem cell derived small intestine enteroids in vitro; assay type: cell-based, C57BL/6J mice; conditions: culminating in calreticulin cell surface exposure, data not shown
Experimental: Crypts were isolated and enriched from the ileum of 8-12 week old C57BL/6J mice as previously described (24) with the following modifications. Briefly, washed pieces of ileum were incubated in crypt chelating buffer (2 mM EDTA in PBS) for 30 minutes on ice. Following the removal of crypt chelating buffer, fragments were vigorously rinsed 3 times with PBS containing 10% FCS and filtered through a 70-μm cell strainer (BD Bioscience). Crypts were pelleted, washed with Advanced DMEM/F12 (ADF) (Invitrogen), resuspended in 1 mL of Matrigel growth factor reduced basement membrane matrix (Corning) and 50 uL drops were pipetted into a 24 well plate. Crypts were overlayed with ADF containing the following: 100 U/mL penicillin G sodium, 100 μg/mL streptomycin sulphate, 2 mM L-glutamine, 10 mM HEPES, 1× N2 supplement, 1× B27 supplement, 50 ng/mL mEGF, 100 ng/mL mNoggin (Peprotech, Hamburg, Germany), N-acetylcysteine (Sigma) (reagents from Invitrogen unless otherwise indicated) and 10% conditioned medium of R-Spondin-1 transfected HEK 293T cells.
IEC suspensions were obtained from enteroids by means of 3 wash dissociation method, as described above. […]

Row | Compound | OXA+anti-PD-1 Ab-mediated anticancer effects against established MC38 cancers (MC38 cancers) | HIEC-6 rendered immunogenic (differentiation of T cells into Th1 cells, IFN-gamma) (naïve CD4+ T cells) | patient feces inducing complete resistance to OXA (avatar non-responders) (MC38 tumors) | patient feces resulting in antitumor efficacy of OXA comparable to SPF mice (avatar responders) (MC38 tumors) | ileal TH1/TFH immune tone (Tbx21, Bcl6, Il27, Gata3, Ahr expression) in response to OXA (ileal mucosae) | apoptosis-associated cleavage of caspase-3 in vivo (ileal and colonic IEC) | apoptosis of enteroids [1]
1 | Bacteroides fragilis | improved OXA+anti-PD-1 Ab-mediated anticancer effects | rendered immunogenic | – | – | – | – | –
2 | O=C1[O][Pt]2([NH][C@@H]3CCCC[C@H]3[NH]2)[O]C1=O [OXA, Oxaliplatin] | – | – | 4 | 8/12 | decrease of the ileal TH1/TFH immune tone | far more prominent in ileal than colonic IEC | triggered a dose-dependent apoptosis

Reference: patent US12246044B2, “Bacterial and cell compositions for the treatment of colorectal cancer and methods for assessing a prognosis for patients having the same” (priority 2017, dated 2025)
